This is an account of results in patent US8614200B2, “Compounds, compositions and methods for treating ocular conditions” (Chimerix, Inc., priority 2009, dated 2013).

Format in all cases: cell-based
One assay deals with VZV. Put plainly: in vitro antiviral activity against VZV.
A further assay has as its system HHV-6. Put plainly: in vitro antiviral activity against HHV-6. The note with it: for pEC50: HHV-6, in vitro.
Another assay has as its system CMV. As to the kind of experiment: in vitro antiviral activity against CMV. The note with it: for pEC50: Human betaherpesvirus 5, CMV, in vitro.
Another assay has as its system EBV. As to the kind of experiment: in vitro antiviral activity against EBV.
The test system of a further assay is HSV-1. As to the kind of experiment: in vitro antiviral activity against HSV-1. Particulars: CMX001 versus cidofovir EC50, HSV-1.

pEC50: −log10 of the molar value. A value given as a limit tells only on which side of the number the result lay.

A word on the pEC50: it is the EC50 on a negative log10 scale, so that one unit is a factor of ten. On to `Nc1ccn(C[C@@H](CO)OCP(=O)(O)O)c(=O)n1` [Cidofovir, cidofovir, reference compound], for which the pEC50 in the assay with VZV (Human alphaherpesvirus 3, VZV, in vitro) was 6.30; in the assay on HHV-6 it was 5.27; in the assay on CMV, 6.40; with EBV (human gammaherpesvirus 4, EBV, in vitro), below 3.97.

In the case of `CCCCCCCCCCCCCCCCOCCCOP(=O)(O)CO[C@H](CO)Cn1ccc(N)nc1=O` [CMX001], the “Enhanced Activity” value is 125 in the assay with VZV (CMX001 versus cidofovir EC50, VZV); 92 with HSV-1; 771 with HHV-6 (CMX001 versus cidofovir EC50, HHV-6); 400 in the assay on CMV (CMX001 versus cidofovir EC50, CMV); above 2700 in the assay with EBV (CMX001 versus cidofovir EC50, EBV). Also, the pEC50 was 8.15 with HHV-6 and 9.00 with CMV.
